Experimental data: patent US11753484B2, “Cellulose ether-lactam hybrid polymers, compositions, and methods for preparing and using the hybrid polymers” (HERCULES LLC, priority 2017, dated 2023)

Experiments:
[1] = description of the API; cited from earlier work
[2] = Dissolution of Efavirenz spray dried dispersions in pH 6.8 phosphate buffer media (Pion μDiss Profiler); type: physicochemical
Description: (§1) The active pharmaceutical ingredient (API) and polymer were mixed in a 30:70 ratio and spray-dried into a spray dried dispersion (SDD). The following are the solution preparation and spray drying process information. Solution preparation: Efavirenz and polymers were dissolved in a 2:1 (w/w) mixture of acetone:methanol solution at a total 3% solid loading. Dissolution of all components was visually confirmed before spray drying. Spray drying: Spray drying was performed on a GEA-Niro SD Micro spray dryer. All dispersions were spray dried targeting an inlet gas temperature of 85° C., 25 kg/hour process gas flow, 0.5 barr atomization gas pressure, 1.5 kg/hour atomizing gas flow, and an adjustable liquid feed rate targeting an outlet gas temperature of 55° C. The feed solution was held at ambient conditions. Dissolution: The dissolution tests were conducted using Pion μDiss Profiler with in situ Fiber Optic UV-Vis Monitoring. 66.7 mg spray dried dispersion (SDD) was weighed and tested in the dissolution, with 30% drug loading level (20 mg API). The controlled reference used in dissolution testing is pure API Efavirenz (20 mg). The quantity of dissolution media is 20 mL. The API concentrations were monitored for 2 hours. For each sample, triplicate measurements were taken and the average results were reported. Fasted Simulated Intestine Fluid (FaSSIF), as well as pH 6.8 phosphate buffer, were used to perform the dissolution. FaSSIF is virtually the same as the small intestinal juices present when one hasn't eaten any food, and contain bile salts and phospholipids, physiologically relevant surfactants which are missing from typical dissolution media. The use of FaSSIF media can help to better correlate the in vitro dissolution property and the in vivo response (IVIVC), so as to further understand the API performance in actual human body. Meanwhile, pH 6.8 phosphate buffer medium was also used in the study, as it was more typically used in formulation development/screening process, pH 6.8 phosphate buffer medium is not as indicated as FaSSIF medium in terms of establishing the IVIVC. […]

[3] = BCS-2 type drug; cited from earlier work
[4] = Glass transition temperature (Tg) by differential scanning calorimetry; type: physicochemical; conditions: regular DSC, heat-cool-heat, 10° C./minute, second heating cycle
Description: Differential Scanning Calorimetry (DSC): Glass transition temperature Tg is an important indicator of API physical stability against crystallization through storage. The higher Tg, the better physical stability. Generally speaking, if the Tg is equal to or higher than storage temperature+50° C., then the product is expected to be very stable throughout the entire shelf life. If the Tg is between storage temperature and temperature+50° C., then some stability issue may occur.
The glass transition temperature (Tg) measurement were conducted using TA instrument, Q2000. For pure ingredients, regular DSC set up was used. A heat-cool-heat cycle with a heating rate of 10° C./minutes was implemented. The first heating cycle is used to standardize sample by erasing its thermal history, and the Tg from second heating cycle is reported. For SDD, modulated DSC set up was used. An average heating rate of 2° C./minute with modulation amplitude of 1° per 40 seconds was implemented.
The measurement results are summarized below in the Table. […] Stable SDDs are expected from this indicator.

[5] = Dissolution of Efavirenz spray dried dispersions in FaSSIF media (Pion μDiss Profiler); type: physicochemical
Description: as §1

[6] = cited from earlier work
[7] = 20 mg API in 20 mL, 30% drug load SDD (API:polymer 30:70), 2 hours, mean of triplicate
[8] = Efavirenz concentration at 120 min, SDD 30:70

For `O=C1Nc2ccc(Cl)cc2[C@@](C#CC2CC2)(C(F)(F)F)O1` [Efavirenz], which glass transition temperature [1] is on record?
Its glass transition temperature is “around 35 °C”.

And the AUC [2, 7]?
Its AUC is 960.92 µg·min/mL.

And the relAUC ([2]; AUC of SDD vs AUC of neat API)?
The relAUC was 1.0.

And the C120 [2, 8]?
The C120 was 9.924 µg/mL.

What about the aqueous solubility [3] of the same compound?
The aqueous solubility was “poor”.

And the “Tg, Pure ingredient” value [4]?
Its value is 34.9 °C.

And the AUC [5, 7]?
The AUC was 18702.91 µg·min/mL.

What about the relAUC ([5]; AUC of SDD vs AUC of neat API) of the same compound?
The relAUC was 1.0.

What about the C120 [5, 8] of the same compound?
Its C120 is 166.7892 µg/mL.

And the “partition coefficient in an octanol-water system (logP)” value [6]?
Its value is 4.7.
